Results taken from PMC11962866 (RSC Advances, 2025).
Converted amounts (≈) assume the structure as drawn. “Also recorded” adds a separate entry of the source.

Tests used:
[1] = system: azole-resistant strain 904; experiment: In vivo antifungal potency, mouse infection model, kidney fungal burden; settings: mice, tail vein infection with strain 904, intraperitoneal, day 5
[2] = system: azole-resistant strain 904; experiment: Biofilm formation; format: cell-based, Candida albicans
C. alb (SC5314) = experiment: In vitro antifungal assay; format: cell-based; settings: Candida albicans, SC5314, read-out: MIC80 C. alb (SC5314)
MRC-5 cells = experiment: Cytotoxicity assay on normal cells; format: cell-based, human; settings: Homo sapiens, MRC5, 72 h, read-out: IC50 on MRC-5 cell lines
[3] = system: ERG11 and CDR1 of azole-resistant strain 904; experiment: RT-PCR expression of resistant genes ERG11 and CDR1; format: cell-based, Candida albicans; settings: 0.25 μg mL^−1, strain 904, RT-PCR
C. neo = experiment: In vitro antifungal assay; format: cell-based; settings: Cryptococcus neoformans, read-out: MIC80 C. neo
Plasma stability assay = settings: male, SD, rat
Strain 17# = experiment: Antifungal activity against fluconazole-resistant strain; format: cell-based; settings: Candida albicans, read-out: MIC80 Strain 17#
Strain 904 [4] = experiment: Time-kill test; format: cell-based, Candida albicans; settings: A11 at 8 × MIC, 16 × MIC, 32 × MIC
Strain 901 = experiment: Antifungal activity against fluconazole-resistant strain; format: cell-based; settings: Candida albicans, 901, read-out: MIC80 Strain 901
[5] = Metabolic stability assay of liver microsomes; format: in vitro ADME; settings: mouse
Strain 904 [6] = experiment: ROS level; format: cell-based, Candida albicans; settings: 0.25 μg mL^−1, compared to blank and fluconazole groups
[7] = system: azole-resistant strain 904; experiment: Yeast-to-hypha morphological transition; format: cell-based, Candida albicans; settings: 0.25 μg mL^−1, 5 h
[8] = system: strain 904, fluconazole-resistant strain of C. albicans; experiment: Minimum fungicidal concentration; format: cell-based, Candida albicans; settings: strain 904
C. alb SC5314 [9] = experiment: GC-MS analysis of sterol composition; format: cell-based, Candida albicans; settings: 0.03 μg mL^−1, 24 h
[10] = system: five fluconazole-resistant strains obtained from clinical isolation; experiment: Antifungal activity, span over five fluconazole-resistant strains; format: cell-based, Candida albicans; settings: Candida albicans, read-out: MIC80 span over the tested resistant strains
Strain 904 [11] = experiment: Antifungal activity against fluconazole-resistant strain; format: cell-based, Candida albicans
C. alb SC5314 [12] = experiment: Morphological observation of fungal cells by TEM; format: cell-based, Candida albicans; settings: 2 μg mL^−1, 24 h
Strain 632 = experiment: Antifungal activity against fluconazole-resistant strain; format: cell-based; settings: Candida albicans, 632, read-out: MIC80 Strain 632
Strain CaR = experiment: as above; format: cell-based; settings: Candida albicans, read-out: MIC80 Strain CaR

Which results are given for `O=C(Nc1ccc(F)cc1F)c1ccc(COC(Cn2ccnc2)c2ccc(Cl)cc2Cl)cc1` (centres unmarked) [A11, 4-((1-(2,4-Dichlorophenyl)-2-(1H-imidazol-1-yl)ethoxy)methyl)-N-(2,4-difluorophenyl)benzamide]?
Efficacy in vivo (CFU fungal burden in kidneys) [1]: potent efficacy; also recorded: significantly reduced fungal burden; Effect on mature biofilms [2]: dose-dependent destruction of mature fungal biofilms; MIC80 (C. alb (SC5314)): 0.03 µg/mL (≈ 0.0597 µM); IC50 (MRC-5 cells): > 100 µM; Expression of ERG11 and CDR1 [3]: reduced to basic levels; MIC80 (C. neo): 0.06 µg/mL (≈ 0.119 µM); half-life (Plasma stability assay): > 360 min; remaining at 3 h (Plasma stability assay): 73.9%; MIC80 (Strain 17#): 1 µg/mL (≈ 1.99 µM); Time-kill fungicidal effect (Strain 904 [4]): potent fungicidal effects at three concentrations; MIC80 (Strain 901): 1 µg/mL (≈ 1.99 µM); half-life [5]: 15.5 min; microsomal CLint [5]: 89.4 µL/min/mg; Intracellular ROS levels (Strain 904 [6]): significant increase in intracellular ROS levels; Morphological transition from yeast to hyphae [7]: completely hindered the morphogenetic transition; MFC/MIC [8]: 16; Effect on ergosterol biosynthesis / sterol composition (C. alb SC5314 [9]): effectively suppresses ergosterol biosynthesis; MIC80 [10]: 0.125 to 2 µg/mL (≈ 0.249 to 3.98 µM); MIC80 (Strain 904 [11]; Candida albicans, 904, read-out: MIC80 Strain 904): 0.125 µg/mL (≈ 0.249 µM); MIC (Strain 904 [11]; Candida albicans, 904, read-out: MIC against C. alb): 0.125 µg/mL (≈ 0.249 µM); Fungal cell morphology (TEM) (C. alb SC5314 [12]): disrupt the structural integrity of the cells; MIC80 (Strain 632): 2 µg/mL (≈ 3.98 µM); MIC80 (Strain CaR): 2 µg/mL (≈ 3.98 µM)
